{
  "source": "ChEMBL document CHEMBL4311969",
  "about": "“Polygala tenuifolia-Acori tatarinowii herbal pair as an inspiration for substituted cinnamic α-asaronol esters: Design, synthesis, anticonvulsant activity, and inhibition of lactate dehydrogenase study” (Eur J Med Chem, 2019)",
  "key": {"[1]": {"biological_target": "GABA-A receptor; alpha-1/beta-2/gamma-2 (Homo sapiens) (UniProt P14867+P47870+P18507)", "experiment": "Agonist activity at GABA alpha1beta2gamma2 receptor in human HEK293T at 3.3 to 300 uM at -50 mV holding potential by whole cell voltage clamp assay relative to control", "assay_type": "protein-complex assay"}, "[2]": {"experiment": "Drug uptake in Sprague-Dawley rat kidney at 50 mg/kg, po", "assay_type": "ADME, organism-based", "settings": "in vivo; call rule not given here"}, "[3]": {"experiment": "Tmax in Sprague-Dawley rat heart at 50 mg/kg, po", "assay_type": "ADME, organism-based"}, "[4]": {"experiment": "Tmax in Sprague-Dawley rat brain at 50 mg/kg, po", "assay_type": "ADME, organism-based"}, "[5]": {"experiment": "Tmax in Sprague-Dawley rat kidney at 50 mg/kg, po", "assay_type": "ADME, organism-based"}, "Mus musculus [6]": {"system": "Mus musculus", "experiment": "Anticonvulsant activity in Kunming mouse assessed as reduction in ScPTZ-induced seizure at 100 mg/kg, ip administered 0.5 hrs before ScPTZ stimulation relative to control", "assay_type": "functional", "set-up": "scale not given: the % may be the effect or the level left"}, "Mus musculus [7]": {"system": "Mus musculus", "experiment": "Potency index, ratio of ED50 of valproic acid to ED50 of compound anticonvulsant activity in ip dosed Kunming mouse assessed as MES-induced hind limb extension administered 0.5 hrs before MES stimulation", "assay_type": "functional"}, "Mus musculus [8]": {"system": "Mus musculus", "experiment": "Potency index, ratio of ED50 of carbamazepine to ED50 of compound anticonvulsant activity in ip dosed Kunming mouse assessed as MES-induced hind limb extension administered 0.5 hrs before MES stimulation", "assay_type": "functional"}},
  "data": [
    {"smiles": "COc1cc(OC)c(OC)cc1/C=C/COC(=O)/C=C/c1c(OC)cc(OC)c(OC)c1OC", "values": [
      {"measurement": "%max", "setting": "[1]", "result": 356, "unit": "%"},
      {"measurement": "Drug uptake", "setting": "[2]", "result": "Active"},
      {"measurement": "Tmax", "setting": "[3]", "result": 1, "unit": "h"},
      {"measurement": "Tmax", "setting": "[4]", "result": 1, "unit": "h"},
      {"measurement": "Tmax", "setting": "[5]", "result": 1, "unit": "h"}
    ]},
    {"smiles": "COc1cc(OC)c(OC)cc1/C=C/COC(=O)/C=C/c1cc(OC)c(OC)c(OC)c1OC", "values": [
      {"measurement": "Activity", "setting": "Mus musculus [6]", "result": 100, "unit": "%"},
      {"measurement": "Ratio ED50", "setting": "Mus musculus [7]", "result": 23.1},
      {"measurement": "Ratio ED50", "setting": "Mus musculus [8]", "result": 1.17}
    ]}
  ]
}
